# From PMC2288882 (The Journal of Cell Biology, 1991)
# How the values were obtained:
# Format in all cases: binding
# [1] = target: Torpedo AChR αγ subunit combination (Tetronarce californica, UniProt P02710+P02714); assay: biochemical
# [2] = target: Torpedo AChR αδ subunit combination (Tetronarce californica, UniProt P02710+P02718); assay: biochemical
# [3] = target: native Torpedo AChR (all four subunits) (Tetronarce californica, UniProt P02710+P02714+P02718); settings: extracts of oocytes expressing all four AChR subunits; Fig. 1 A
# Chain of native Torpedo AChR (all four subunits) (P02710 25-461): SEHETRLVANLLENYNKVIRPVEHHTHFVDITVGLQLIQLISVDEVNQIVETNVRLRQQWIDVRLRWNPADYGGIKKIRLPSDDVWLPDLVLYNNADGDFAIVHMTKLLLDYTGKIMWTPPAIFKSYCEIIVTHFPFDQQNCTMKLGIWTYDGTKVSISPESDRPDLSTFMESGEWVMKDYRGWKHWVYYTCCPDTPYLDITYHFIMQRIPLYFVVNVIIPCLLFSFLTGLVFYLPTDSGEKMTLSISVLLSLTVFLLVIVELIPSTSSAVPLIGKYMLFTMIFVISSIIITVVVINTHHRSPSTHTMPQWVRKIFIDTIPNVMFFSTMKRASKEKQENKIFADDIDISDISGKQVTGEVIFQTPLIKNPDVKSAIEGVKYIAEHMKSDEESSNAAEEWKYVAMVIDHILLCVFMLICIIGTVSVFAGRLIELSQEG
# Chain of native Torpedo AChR (all four subunits) (P02712 25-493, further chain): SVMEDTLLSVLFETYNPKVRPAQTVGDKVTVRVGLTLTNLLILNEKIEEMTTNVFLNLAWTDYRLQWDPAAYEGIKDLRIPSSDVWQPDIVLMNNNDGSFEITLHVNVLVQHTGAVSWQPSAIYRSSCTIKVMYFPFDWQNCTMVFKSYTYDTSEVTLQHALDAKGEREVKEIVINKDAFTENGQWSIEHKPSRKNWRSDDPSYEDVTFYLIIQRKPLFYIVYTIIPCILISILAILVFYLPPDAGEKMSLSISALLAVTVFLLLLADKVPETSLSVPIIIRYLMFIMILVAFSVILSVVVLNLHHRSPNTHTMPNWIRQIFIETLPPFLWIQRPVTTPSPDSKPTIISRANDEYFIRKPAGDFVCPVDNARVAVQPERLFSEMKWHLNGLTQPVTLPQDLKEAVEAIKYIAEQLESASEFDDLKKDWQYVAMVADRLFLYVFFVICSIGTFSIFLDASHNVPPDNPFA
# Chain of native Torpedo AChR (all four subunits) (P02718 22-522): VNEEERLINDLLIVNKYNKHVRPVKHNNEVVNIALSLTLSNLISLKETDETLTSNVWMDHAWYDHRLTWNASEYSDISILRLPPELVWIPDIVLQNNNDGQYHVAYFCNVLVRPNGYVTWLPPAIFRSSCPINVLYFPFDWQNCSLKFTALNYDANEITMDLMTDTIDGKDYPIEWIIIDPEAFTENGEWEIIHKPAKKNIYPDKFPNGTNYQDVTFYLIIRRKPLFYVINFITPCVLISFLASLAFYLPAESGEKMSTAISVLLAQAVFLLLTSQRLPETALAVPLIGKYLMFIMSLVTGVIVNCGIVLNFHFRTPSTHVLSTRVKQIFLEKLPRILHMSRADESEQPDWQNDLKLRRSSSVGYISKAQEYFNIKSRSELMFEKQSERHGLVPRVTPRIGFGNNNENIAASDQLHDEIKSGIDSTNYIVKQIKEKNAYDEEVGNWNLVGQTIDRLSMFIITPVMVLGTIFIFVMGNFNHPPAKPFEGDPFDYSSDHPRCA
# Chain of native Torpedo AChR (all four subunits) (P02714 18-506): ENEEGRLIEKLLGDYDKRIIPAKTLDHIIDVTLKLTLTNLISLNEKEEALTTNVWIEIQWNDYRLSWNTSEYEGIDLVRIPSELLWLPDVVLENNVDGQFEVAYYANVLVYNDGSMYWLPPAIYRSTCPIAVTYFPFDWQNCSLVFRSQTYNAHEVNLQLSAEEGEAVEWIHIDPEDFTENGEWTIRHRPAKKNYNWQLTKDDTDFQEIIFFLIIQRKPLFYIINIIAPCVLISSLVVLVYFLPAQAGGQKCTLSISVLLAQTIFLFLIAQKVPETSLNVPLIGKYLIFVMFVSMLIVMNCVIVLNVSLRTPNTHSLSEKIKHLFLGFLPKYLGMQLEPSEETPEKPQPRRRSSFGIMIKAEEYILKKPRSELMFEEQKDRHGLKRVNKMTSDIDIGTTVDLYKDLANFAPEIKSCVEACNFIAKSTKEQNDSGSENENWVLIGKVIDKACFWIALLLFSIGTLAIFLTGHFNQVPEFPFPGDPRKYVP
# Chain of Torpedo AChR αγ subunit combination (P02710 25-461): as the sequence (P02710 25-461) above
# Chain of Torpedo AChR αγ subunit combination (P02714 18-506): as the sequence (P02714 18-506) above
# Chain of Torpedo AChR αδ subunit combination (P02718 22-522): as the sequence (P02718 22-522) above
# Chain of Torpedo AChR αδ subunit combination (P02710 25-461): as the sequence (P02710 25-461) above
structure (smiles),measurement,setting,value
COc1cc2c3cc1Oc1cc(ccc1O)C[C@@H]1c4c(cc(OC)c(O)c4Oc4ccc(cc4)C[C@@H]3N(C)CC2)CC[N+]1(C)C [curare],IC50,[1],~20 µM
same,IC50,[2],200 µM
same,shape of curare inhibition curve of αBgt binding,[3],biphasic curve
